The source of these data is patent US5451583A, “Substituted benzimidazoles and quinazolines as antihypertensives” (American Home Products Corporation, priority 1994, dated 1995).

Where a name gives a salt, the structure may show the parent alone.

The first assay has as its target angiotensin II receptor. Nature of the assay: rat adrenal receptor binding assay, displacement of radiolabeled (125I) angiotensin II. The conditions noted are these: rat adrenal cortex membranes; 1 nM 125I-A II; 35 min at 25° C.; pH 7.4; read-out: IC50, Inhibition of 125I Angiotensin II Binding. The protocol:
The high affinity of the compounds for the angiotensin II receptor was established using a rat adrenal receptor binding assay, measuring the displacement of radiolabeled angiotensin II from the receptor, described as follows: Anesthetize male Sprague-Dawley rats (300-400 g body weight) with CO2 and sacrifice by cervical dislocation. Dissect adrenal glands and keep in ice-cold sucrose buffer (0.2M sucrose, 1 mM EDTA, 10 mM Trizma base, pH=7.2). Remove medulla by squashing. Mince the cortex, rinse and homogenize in a chilled ground glass tissue grinder with 15 mL sucrose buffer. Centrifuge at 3000×g for 10 min. (Sorvall RCSC centrifuge, SS34 rotor 6200 rpm). Decant supernatant through gauze. Centrifuge combined supernatant at 12000×g for 13 min. (Beckman ultracentrifuge, 80Ti rotor, 13000 rpm). Centrifuge the supernatant from the previous step at 102000×g for 60 min. (Beckman ultracentrifuge, 80Ti rotor, 38200 rpm). All steps are carried out at 4° C. Resuspend the pellet in 0.5 mL assay buffer (50 mM Tris HCI, 5 mM MgCl2, 0.2% BSA (protease-free), pH=7.4, 25° C.). Store on ice. Determine membrane protein by Lowry or Bradford assay with BSA as standard. The binding assay is performed in triplicate, in 12×75 mm plastic test tubes or in a 96-well plate (final volume of 0.25 mL). Add 140 μL assay buffer. Add 10 μL cold A II (to give final concentrations of 10^-10 -10^-7 M for standard curve and 10^-4 M for nonspecific binding), compounds (e.g., for final concentrations of 25 and 100 μM or 1 μM, 10 nM and 100 nM) in 50% DMSO, or 50% DMSO as a control. Add 50 μL membrane suspension (e.g., 10 μg protein). Preincubate for 30 min at 25° C. Add 50 μL ^125 I-A II which has been prepared as shown below (final concentration=1 nM). Incubate for 35 min at 25° C. Stop the incubation by adding 1 mL ice-cold buffer (assay buffer without BSA). Filter with GF/C filters on cell harvester (filters are presoaked in the assay buffer containing 1% polyethyleneimine). Rinse assay tubes 3× with 5 mL cold buffer (assay buffer without BSA). Cut and deposit the filter discs into test tubes and count on gamma counter for 1 min. Adjust the specific activity of ^125 I-A II purchased from New England Nuclear to 500 μCi/nmole by adding cold A II in water. Calculate the quantities of hot A II and the cold A II needed and make the dilution. Aliquot, seal tight, and store frozen until needed. Calculate the concentration of the total A II (hot+cold) after dilution. On the day of assay, thaw the frozen aliquot and adjust the volume to give a concentration of 5 pmole/mL (or 0.25 pmole/50 μL) with assay buffer (+protease-free BSA). For final concentration of 1 nM ^125 I-A II in the assay, add 50 μL (or 0.25 pmole) per test tube to a final volume of 250 μL. The results of these binding assays are reported as the inhibitory concentration of the test compound necessary to achieve fifty percent displacement of radiolabeled angiotensin II from its receptor (IC50), or the percent displacement of binding of A II at its receptor at 10^-8 M concentration of test compound (% I).
The term IC50 denotes the concentration that inhibits the measured activity by half. Turning to `CCCc1nc2ccccc2n1CC1=C(c2ccccc2-c2nnn[nH]2)CCC1` [Example 1, 2-Propyl-1-[[2-[2-(1H-tetrazol-5-yl)phenyl]-1-cyclopentenyl]methyl]-1H-benzimidazole], the IC50 was 200 µM.
Consider `CCCc1nc2ccccc2n1CC1=C(c2cccc(-c3nnn[nH]3)c2)CCC1` [Example 2, 2-Propyl-1-[[2-[3-(1H-tetrazol-5-yl)phenyl]-1-cyclopentenyl]methyl]1H-benzimidazole], for which the IC50 stood at 73 µM.
In the case of `CCCc1nc2ccccc2n1Cc1ccc(C2=C(C(=O)O)CCC2)cc1` [Example 3, 2-[4-[(2-Propyl-1H-benzimidazol-1-yl)methyl]phenyl]-1-cyclopentene-1-carboxylic Acid], the 50% inhibitory concentration (IC50) worked out at 20 µM.
As to `CCCc1nc2ccccc2n1Cc1ccc(C2CCCC2C(=O)O)cc1` (centres unmarked) [Example 4, 2-[4-[(2-Propyl-1H-benzimidazol-1-yl)methyl]phenyl]cyclopentane-1-carboxylic Acid], the 50% inhibitory concentration (IC50) came out at 25 µM.
Same read-out and setting: the value for `CCCc1nc2ccccc2n1CCN1CCN(c2ccccc2-c2nnn[nH]2)CC1` [Example 5, 2-Propyl-1-[2-[4-[2-(1H-tetrazol-5-yl)phenyl]-1-piperazinyl]ethyl]-1H-benzimidazole Potassium Salt] was 43 µM; that for `CCCc1nc2ccccc2n1CCC1CCN(c2ccccc2-c2nnn[nH]2)CC1` [Example 6, 2-Propyl-1-[2-[1-[2-(1H-tetrazol-5-yl)phenyl]-4-piperidinyl]ethyl]-1H-benzimidazole] was 30 µM; that for `CCCc1nc2ccccc2n1Cc1ccc(-c2ccccc2-c2nnn[nH]2)nc1` [Example 7, 2-Propyl-1-[[2-[2-(1H-tetrazol-5-yl)phenyl]-5-pyridinyl]methyl]-1H-benzimidazole] was 24 µM.
With `CCCc1nc2c(C)cccc2n1Cc1ccc(-c2ccccc2-c2nnn[nH]2)nc1` [Example 8, 4-Methyl-2-propyl-1-[[2-[2-(1H-tetrazol-5-yl)phenyl]-5-pyridinyl]methyl]-1H-benzimidazole], the IC50 was 15 µM.
On to `FC(F)(F)c1nc2c(c(NCc3ccc(-c4ccccc4-c4nn[nH]n4)nc3)n1)CCCC2` [Example 9], for which the IC50 was found to be 4.5 µM.
In the case of `CCCc1nc2ccccc2n1Cc1ccc(-c2ncccc2C(=O)O)cc1` [Example 10, 2-[4-[(2-Propyl-1H-benzimidazol-1-yl)methyl]phenyl]-3-pyridinecarboxylic Acid], the IC50 is 200 µM.

Another assay deals with A II-infused rat. Nature of the assay: A II-infused rat model (ganglion-blocked), antihypertensive action. Type of assay: in vivo. The conditions noted are these: 3 mg/kg id (intraduodenal), four hours post-administration. The procedure:
In accordance with their ability to antagonize angiotensin II, the compounds of this invention show antihypertensive action in the following A II-infused rat model. Rats are anesthetized with Dial-Urethane (0.60 mL/kg, ip) and the trachea cannulated with PE 240. Either one femoral artery and both femoral veins or the carotid artery and the corresponding jugular vein are cannulated with PE 50. If the jugular vein is cannulated, two cannulas are placed in the one vein. The initial portion of the duodenum (just distal to the stomach) is cannulated with PE 50 via a small midline incision. Arterial pressure and heart rate are measured from the arterial cannula. Ten to 15 min are allowed following surgery for stabilization of arterial pressure. Ganglion blockade is then produced by intravenous administration of mecamylamine at 3 mg/kg (1 mL/kg of a 3 mg/mL solution). Ganglion blockade causes a fall in arterial pressure of about 50 mmHg. Mecamylamine is given every 90 min throughout the remainder of the experiment. An A II infusion is then begun into the other venous cannula at 0.25 μg/kg/min (at […]). The A II infusion returns arterial pressure to or slightly above the control level. Once arterial pressure has stabilized with the A II infusion, baseline values for mean arterial pressure (MAP) and heart rate are taken. […]
For the molecule `FC(F)(F)c1nc2c(c(NCc3ccc(-c4ccccc4-c4nn[nH]n4)nc3)n1)CCCC2` [Example 9], the “lowering of A II dependent blood pressure, average” value was 70%.
